Source: PubChem BioAssay (NCI)
“And” between values parts separate entries of the source, which are not always exact repeats. Equal values may be shown once.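 Briefly, cells in 96-well plates were exposed to five compound concentrations for 48 h, and endpoints were estimated by linear interpolation. The concentration for 50% growth inhibition is given as GI50. TGI is the concentration that stops growth completely.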

Tests used:
Assay in all cases: NCI anticancer screen, dose series, 48 h
[1] = test system: HCT-15 colon
[2] = test system: MDA-MB-231 breast
[3] = test system: SK-MEL-2 melanoma
[4] = test system: OVCAR-8 ovarian
[5] = test system: K-562 leukemia
[6] = test system: HCC-2998 colon
[7] = test system: SN12C renal
[8] = test system: HOP-62 NSCLC
[9] = test system: CCRF-CEM leukemia
[10] = test system: OVCAR-5 ovarian
[11] = test system: EKVX NSCLC
[12] = test system: SR leukemia
[13] = test system: COLO 205 colon
[14] = test system: NCI/ADR-RES ovarian
[15] = test system: LOX IMVI melanoma
[16] = test system: HS 578T breast
[17] = test system: MCF7 breast
[18] = test system: KM12 colon
[19] = test system: OVCAR-4 ovarian
[20] = test system: SF-268 CNS
[21] = test system: T-47D breast
[22] = test system: MDA-MB-435
[23] = test system: OVCAR-3 ovarian
[24] = test system: UACC-257 melanoma
[25] = test system: HOP-92 NSCLC
[26] = test system: SNB-19 CNS
[27] = test system: NCI-H226 lung
[28] = test system: SK-OV-3 ovarian
[29] = test system: SF-295 CNS
[30] = test system: RPMI-8226 leukemia
[31] = test system: RXF 393 renal
[32] = test system: NCI-H522 lung
[33] = test system: NCI-H23 lung
[34] = test system: A498 renal
[35] = test system: CAKI-1 renal
[36] = test system: TK-10 renal
[37] = test system: BT-549 breast
[38] = test system: HT29 colon
[39] = test system: M14 melanoma
[40] = test system: HCT-116 colon
[41] = test system: MOLT-4 leukemia
[42] = test system: HL-60(TB) leukemia
[43] = test system: U251 CNS
[44] = test system: SK-MEL-5 melanoma
[45] = test system: PC-3 prostate
[46] = test system: UACC-62 melanoma
[47] = test system: SF-539 CNS
[48] = test system: 786-0 renal
[49] = test system: SK-MEL-28 melanoma
[50] = test system: ACHN renal
[51] = test system: MALME-3M melanoma
[52] = test system: DU-145 prostate
[53] = test system: SNB-75 CNS
[54] = test system: A549 NSCLC
[55] = test system: UO-31 renal
[56] = test system: SW-620 colon
[57] = test system: NCI-H460 lung

## CC(C)c1cc(C(=O)N2Cc3ccc(CN4CCN(C)CC4)cc3C2)c(O)cc1O
[1]
  GI50: 62.2 nM and 145 nM
  TGI: > 100000 nM and 21800 nM
[2]
  GI50: 390 nM and 443 nM
  TGI: 24800 nM and 13700 nM
[3]
  GI50: 736 nM and 710 nM
  TGI: 4780 nM and 20100 nM
[4]
  GI50: 60.4 nM and 300 nM
  TGI: > 100000 nM
[5]
  GI50: 47.2 nM and 207 nM
  TGI: > 100000 nM and 16200 nM
[6]
  GI50: 45.5 nM and 213 nM
[7]
  GI50: 106 nM and 498 nM
  TGI: > 100000 nM
[8]
  GI50: 128 nM and 656 nM
  TGI: > 92200 nM
[9]
  GI50: 73.7 nM and 106 nM
  TGI: > 100000 nM and 30200 nM
[10]
  TGI: > 100000 nM
[11]
  GI50: 983 nM and 1270 nM
  TGI: > 100000 nM
[12]
  GI50: 37.1 nM and 59.3 nM
  TGI: 84000 nM and 17100 nM
[13]
  GI50: 42.2 nM and 44.4 nM
[14]
  GI50: 245 nM and 779 nM
  TGI: > 90000 nM
[15]
  GI50: 55 nM and 177 nM
  TGI: 369 nM and 2520 nM
[16]
  GI50: 716 nM and 1870 nM
  TGI: 35300 nM and 43900 nM
[17]
  GI50: 25.4 nM and 48.4 nM
  TGI: 24100 nM and 30500 nM
[18]
  GI50: 29.1 nM and 77.2 nM
[19]
  GI50: 5790 nM and 6390 nM
  TGI: > 100000 nM
[20]
  TGI: 59100 nM and 54300 nM
[21]
  GI50: 63.1 nM and 342 nM
  TGI: 31200 nM and 34800 nM
[22]
  GI50: 51.4 nM and 137 nM
  TGI: 21100 nM and 13400 nM
[23]
  GI50: 79.3 nM and 452 nM
  TGI: 23400 nM and 20900 nM
[24]
  GI50: 95.4 nM and 484 nM
  TGI: 4460 nM and 15200 nM
[25]
  GI50: 617 nM and 498 nM
  TGI: 35300 nM and 11000 nM
[26]
  GI50: 872 nM and 847 nM
  TGI: > 100000 nM
[27]
  GI50: 414 nM and 553 nM
  TGI: > 60300 nM and 50600 nM
[28]
  GI50: 31.5 nM and 64.4 nM
  TGI: 54000 nM and 18800 nM
[29]
  GI50: 37.1 nM and 158 nM
  TGI: 2060 nM and 3240 nM
[30]
  TGI: > 100000 nM and 30200 nM
[31]
  GI50: 916 nM and 2360 nM
  TGI: 30500 nM and 28800 nM
[32]
  GI50: 45.4 nM and 291 nM
  TGI: 3200 nM and 18000 nM
[33]
  GI50: 60.6 nM and 458 nM
  TGI: 97400 nM and > 53900 nM
[34]
  TGI: > 100000 nM and 15200 nM
[35]
  GI50: 52.2 nM and 512 nM
[36]
  GI50: 42.8 nM and 381 nM
  TGI: 49800 nM
[37]
  GI50: 15900 nM and 2390 nM
  TGI: > 100000 nM and 30400 nM
[38]
  GI50: 42.8 nM and 58 nM
  TGI: > 32800 nM and 12600 nM
[39]
  GI50: 65.9 nM and 334 nM
  TGI: 15600 nM and 14600 nM
[40]
  GI50: 39.4 nM and 81.8 nM
  TGI: 15300 nM and 13400 nM
[41]
  GI50: 47.3 nM and 177 nM
  TGI: > 66400 nM and 20700 nM
[42]
  GI50: 47.9 nM and 212 nM
  TGI: 16200 nM and 11600 nM
[43]
  GI50: 86.3 nM and 320 nM
  TGI: > 50500 nM and 19600 nM
[44]
  GI50: 163 nM and 459 nM
  TGI: 17300 nM and 16500 nM
[45]
  GI50: 1970 nM and 483 nM
  TGI: > 100000 nM
[46]
  GI50: 69.7 nM and 286 nM
  TGI: 15400 nM and 3910 nM
[47]
  GI50: 1500 nM and 1000 nM
  TGI: 24300 nM and 18000 nM
[48]
  GI50: 1930 nM and 640 nM
  TGI: 30500 nM and 21000 nM
[49]
  GI50: 98.3 nM and 536 nM
  TGI: 18300 nM and 15800 nM
[50]
  GI50: 66.1 nM and 210 nM
  TGI: > 100000 nM
[51]
  GI50: 40.3 nM and 271 nM
  TGI: 1260 nM and 1660 nM
[52]
  GI50: 74.1 nM and 55.3 nM
  TGI: 24400 nM and 18800 nM
[53]
  GI50: 1270 nM and 2190 nM
  TGI: 46700 nM and > 57300 nM
[54]
  GI50: 44 nM and 238 nM
  TGI: > 46000 nM and 37100 nM
[55]
  GI50: 59.1 nM and 296 nM
  TGI: 23600 nM and 18100 nM
[56]
  GI50: 37.6 nM and 55.7 nM
  TGI: 23600 nM and 14800 nM
[57]
  GI50: 31.1 nM and 53.4 nM
  TGI: 16200 nM and 11600 nM
